Test results taken from patent US12180306B2, “Anti-allergic peptide and use thereof for immune regulation and anti-allergy” (Greenyn Biotechnology Co., Ltd, priority 2022, dated 2024).

Tested on: mouse mast cells P815
Experiment: Inhibition of IL-4 and IL-13 secretion by compound 48/80-induced mouse mast cells P815
Type: cell-based
Set-up: key to IL-13 Concentration decrease percentage (%) / IL-4 Concentration decrease percentage (%): N represents that the results obtained have not decreased
Conditions: synthetic peptides; for IL-4 Concentration decrease percentage (%) / IL-13 Concentration decrease percentage (%): P815 cells, compound 48/80 10 μg/mL; for effects in inhibiting secretion of IL-4 and IL-13 by cells: comparison within Table 3; for inhibiting allergic reactions: conclusion from Table 3
Description: Referring to the method disclosed in Example 3, an ability of each of the above synthetic sequences in inhibiting secretion of cytokines such as IL-4 and IL-13 is tested, the results are shown in Table 3, where N represents that the results obtained have not decreased.

Row | Sequence | IL-4 Concentration decrease percentage (%) | IL-13 Concentration decrease percentage (%) | effects in inhibiting secretion of IL-4 and IL-13 by cells | inhibiting allergic reactions
1 | ADALQLVLAV [Peptide 15] | 2.7% | 3.8% | – | –
2 | DLDVVVALGI [Peptide 5] | 7.3% | 24.0% | better effects | capable of inhibiting allergic reactions
3 | DLQLAGLIGL [Peptide 1] | 14.5% | 24.0% | – | capable of inhibiting allergic reactions
4 | EWLLGLLGI [Peptide 4] | 19.9% | 35.4% | – | capable of inhibiting allergic reactions
5 | GLGDAKVALGI [Peptide 3] | 5.1% | 21.7% | better effects | capable of inhibiting allergic reactions
6 | GVSGGVLAAILG [Peptide 9] | 5.8% | 2.7% | – | –
7 | KIVNQVNHLNPT [Peptide 12] | N | 10.8% | – | –
8 | LVPWSIIGL [Peptide 14] | N | 9.8% | – | –
9 | NKKQAAALGI [Peptide 8] | 1.0% | 11.4% | – | –
10 | NPALQVIKV [Peptide 2] | 8.1% | 27.1% | better effects | capable of inhibiting allergic reactions
11 | PMALLAVLGL [Peptide 7] | 4.1% | 5.2% | – | –
12 | PPYQGAPLM [Peptide 11] | 10.0% | N | – | –
13 | QTAQALVLIG [Peptide 13] | N | 12.1% | – | –
14 | TANAIGLAGLI [Peptide 10] | 9.3% | N | – | –
15 | TRQKALAALGI [Peptide 16] | N | 5.9% | – | –
16 | VGNSLAAVIIG [Peptide 6] | 0.9% | 2.7% | – | –
